We go through 11 compounds from ChEMBL document CHEMBL1201862, “PubChem BioAssay data set” (2004).

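Five concentrations, 48 hours, 96-well plates. GI50: concentration for 50% inhibition of growth.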 Calls of active or inactive are those of the source. Rule as the data show it: active = GI50 up to about 1.1 µM and inactive = higher.

Some test systems named below: OVCAR-4; BT-549; SNB-19; DU-145; HCT-15; CCRF-CEM; CAKI-1; Malme-3M; HCC 2998; SK-MEL-2; UACC-62; A498; SF-539; NCI-H23; LOX IMVI; Hs-578T; OVCAR-3; U-251; SK-MEL-5; SNB-75.
Holding throughout (assay): NCI tumour cell line growth inhibition, 48 h

Take `CC(C)[Si](Oc1ccc(CC2N(C(=O)c3ccc([N+](=O)[O-])cc3)C(CCc3ccccc3)CC2(C)C=O)cc1)(C(C)C)C(C)C` (stereo not given): the GI50 in the test with OVCAR-4 is > 100 µM (inactive); in the test on BT-549 it was 21.3 µM (inactive); in the test with SNB-19, 15.6 µM (inactive); in the test with DU-145, 61.1 µM (inactive); in the test with HCT-15 it was 5.6 µM; in the test on CCRF-CEM, > 100 µM (inactive). Also, the GI50 was > 100 µM (inactive) in the test with CAKI-1; > 100 µM (inactive) with Malme-3M; > 100 µM (inactive) with HCC 2998; 86.7 µM (inactive) in the test with SK-MEL-2; > 100 µM (inactive) in the test with UACC-62; > 100 µM (inactive) in the test with A498. Moreover, the GI50 in the test on SF-539 is 6.22 µM (inactive); in the test with NCI-H23, 27.8 µM (inactive); in the test with LOX IMVI, > 100 µM (inactive); in the test on Hs-578T it was 32 µM (inactive); with OVCAR-3, > 100 µM (inactive); with U-251, 20.5 µM (inactive).
For `N#CC(N)c1ccc(OCCCCCCCCCCOc2ccc(C(N)C#N)cc2)cc1` (stereo not given), the GI50 was > 100 µM (inactive) in the test with OVCAR-4; > 100 µM (inactive) in the test with BT-549; > 100 µM (inactive) in the test with SNB-19; > 100 µM (inactive) with DU-145; greater than 100 µM with HCT-15; > 100 µM (inactive) in the test with SK-MEL-5. The GI50 with CCRF-CEM was 13.8 µM (inactive); in the test on CAKI-1, > 100 µM (inactive); in the test on Malme-3M, > 100 µM (inactive); in the test on HCC 2998, > 100 µM (inactive); in the test with SK-MEL-2, 81.8 µM (inactive); in the test with UACC-62, > 100 µM (inactive). For the same compound, the GI50 in the test on A498, in the test on SF-539, with NCI-H23, in the test with LOX IMVI, in the test with Hs-578T and in the test on OVCAR-3 was > 100 µM (inactive) throughout. For the same compound, the GI50 in the test on U-251 is 65.3 µM (inactive).
In the case of `CN(C)CCNS(=O)(=O)c1ccc(N)cc1`, the GI50 was > 100 µM (inactive) in the test on OVCAR-4; > 100 µM (inactive) with BT-549; > 100 µM (inactive) with SNB-19; > 100 µM (inactive) with DU-145; greater than 100 µM in the test on HCT-15; > 100 µM (inactive) in the test with SK-MEL-5. The GI50 with CCRF-CEM is > 100 µM (inactive); with CAKI-1, > 100 µM (inactive); in the test on Malme-3M, > 100 µM (inactive); in the test with SNB-75 it was > 100 µM (inactive); in the test on HCC 2998, > 100 µM (inactive); in the test on SK-MEL-2 it was 18 µM (inactive). The GI50 is > 100 µM (inactive) with UACC-62; > 100 µM (inactive) with A498; > 100 µM (inactive) with SF-539; > 100 µM (inactive) in the test with NCI-H23; > 100 µM (inactive) in the test on Hs-578T; 17.2 µM (inactive) in the test on OVCAR-3. Besides, the GI50 with U-251 is > 100 µM (inactive).
Consider `COC12C=CC(CC1)C(C)(C)C2=O` (stereo not given), for which the GI50 in the test on OVCAR-4 is > 100 µM (inactive); with BT-549, > 100 µM (inactive); with SNB-19, > 100 µM (inactive); in the test with DU-145, > 100 µM (inactive); in the test on HCT-15, greater than 100 µM; in the test with SK-MEL-5, > 100 µM (inactive). In addition, the GI50 in the test with CCRF-CEM, in the test on CAKI-1, in the test with Malme-3M, in the test on SNB-75, in the test with HCC 2998 and with SK-MEL-2 was > 100 µM (inactive) in each case. For the same compound, the GI50 with UACC-62, with A498, in the test with SF-539, in the test on NCI-H23, in the test with Hs-578T and in the test with OVCAR-3 was > 100 µM (inactive) each time. Besides, in the test with U-251, the GI50 is > 100 µM (inactive).
Take `O=C(O)C(Cc1ccc2c(c1)CCC2)(Cc1ccc2c(c1)CCC2)C(=O)O`: the GI50 is > 100 µM (inactive) in the test with OVCAR-4; > 100 µM (inactive) in the test on BT-549; > 100 µM (inactive) with SNB-19; > 100 µM (inactive) in the test on DU-145; greater than 100 µM with HCT-15; > 100 µM (inactive) with SK-MEL-5. In addition, the GI50 in the test with CCRF-CEM, in the test on Malme-3M, with SNB-75, in the test on HCC 2998, in the test with SK-MEL-2 and with UACC-62 was > 100 µM (inactive) each time. In addition, the GI50 in the test with A498, in the test on SF-539, with NCI-H23, with LOX IMVI, with Hs-578T and in the test with OVCAR-3 was > 100 µM (inactive) each time. The GI50 with U-251 is > 100 µM (inactive).
Consider `CN(/N=C/c1cccc2cccnc12)c1ccc(Cl)cc1[N+](=O)[O-]`, for which the GI50 in the test on OVCAR-4 was > 100 µM (inactive); with BT-549 it was > 100 µM (inactive); in the test with SNB-19, > 100 µM (inactive); in the test with DU-145, > 100 µM (inactive); in the test with HCT-15 it was greater than 100 µM; with SK-MEL-5, > 100 µM (inactive). The GI50 is > 100 µM (inactive) in the test with CCRF-CEM; 45.2 µM (inactive) in the test on CAKI-1; > 100 µM (inactive) in the test on Malme-3M; > 100 µM (inactive) in the test with SNB-75; > 100 µM (inactive) in the test on HCC 2998; > 100 µM (inactive) in the test on SK-MEL-2. Further, the GI50 in the test with UACC-62 is > 100 µM (inactive); in the test with A498 it was > 100 µM (inactive); with SF-539, > 100 µM (inactive); with NCI-H23, > 100 µM (inactive); in the test with Hs-578T, 81.5 µM (inactive); in the test on OVCAR-3 it was > 100 µM (inactive). Moreover, the GI50 in the test with U-251 is > 100 µM (inactive).
For `COC(=O)c1ccc(/C=C2\CCc3ccccc3C2=O)cc1`, the GI50 with OVCAR-4 is > 100 µM (inactive); in the test with BT-549, > 100 µM (inactive); in the test on SNB-19 it was > 100 µM (inactive); with DU-145 it was > 100 µM (inactive); in the test on HCT-15, greater than 100 µM; in the test on SK-MEL-5, > 100 µM (inactive). In addition, the GI50 with CCRF-CEM, in the test with CAKI-1, with Malme-3M, in the test with SNB-75, with HCC 2998 and in the test with UACC-62 was > 100 µM (inactive) in each case. Besides, the GI50 in the test on A498 was 34.4 µM (inactive); in the test on SF-539, > 100 µM (inactive); in the test with NCI-H23, > 100 µM (inactive); in the test on LOX IMVI, > 100 µM (inactive); with Hs-578T, > 100 µM (inactive); with OVCAR-3, > 100 µM (inactive). For the same compound, the GI50 in the test with U-251 was > 100 µM (inactive).
On to `CC(C)[N+]([O-])(CCCNc1c2ccccc2nc2cccc([N+](=O)[O-])c12)C(C)C`, for which the GI50 in the test with OVCAR-4 was 0.153 µM (active); in the test on BT-549, < 0.0395 µM (active); with SNB-19 it was 0.0726 µM (active); in the test with DU-145, < 0.026 µM (active); in the test with SK-MEL-5 it was < 0.0167 µM (active); with CCRF-CEM, < 0.0412 µM (active). Also, the GI50 in the test on CAKI-1 is 0.492 µM (active); in the test with Malme-3M, < 0.041 µM (active); in the test on HCC 2998, < 0.01 µM (active); with SK-MEL-2, 0.234 µM (active); in the test with UACC-62 it was 0.148 µM (active); in the test on A498 it was < 0.0452 µM (active). For the same compound, the GI50 in the test with SF-539 is 0.047 µM (active); with NCI-H23, < 0.0206 µM (active); in the test on LOX IMVI it was 0.0619 µM (active); with Hs-578T it was < 0.0481 µM (active); with U-251, < 0.0453 µM (active).
With `CC(=O)O[C@H]1C(=O)[C@@]2(C)[C@H]([C@H](OC(=O)c3ccccc3)[C@]3(O)C[C@H](OC(=O)[C@H](O)[C@@H](NC(=O)c4ccoc4)c4ccccc4)C(C)=C1C3(C)C)[C@]1(OC(C)=O)CO[C@@H]1C[C@@H]2O`, the GI50 in the test with OVCAR-4 is 31.1 µM (inactive); in the test with BT-549, < 0.01 µM (active); in the test on SNB-19 it was 0.0946 µM (active); with DU-145 it was 0.0624 µM (active); with HCT-15, 0.757 µM; in the test on SK-MEL-5, 0.028 µM (active). In addition, the GI50 with CCRF-CEM is 0.0379 µM (active); in the test with SNB-75, 0.0112 µM (active); in the test with HCC 2998, 0.0216 µM (active); in the test with SK-MEL-2, 0.0225 µM (active); in the test on UACC-62 it was 0.0776 µM (active); in the test on A498, 0.0713 µM (active). Further, the GI50 was 0.0292 µM (active) with SF-539; 0.0261 µM (active) in the test on NCI-H23; 0.0215 µM (active) in the test on LOX IMVI; 0.0246 µM (active) in the test on Hs-578T; < 0.01 µM (active) in the test on OVCAR-3; 0.00791 µM (active) in the test with U-251.
For the compound `O=C1c2ccc(O)cc2OC(c2cc(O)c(O)c(O)c2)C1O` (stereo not given) [DIHYDROBINETIN], the GI50 in the test with OVCAR-4 was 37.9 µM (inactive); with BT-549, 20.5 µM (inactive); in the test with SNB-19 it was 41.4 µM (inactive); in the test on DU-145 it was 47.3 µM (inactive); with HCT-15, 33.7 µM; in the test with SK-MEL-5 it was 33 µM (inactive). In addition, the GI50 with CCRF-CEM is 24.1 µM (inactive); in the test on CAKI-1 it was 53.8 µM (inactive); with Malme-3M, > 100 µM (inactive); with HCC 2998, 31.6 µM (inactive); with SK-MEL-2 it was 33.1 µM (inactive); in the test on UACC-62, 30.1 µM (inactive). In addition, the GI50 in the test with A498 was 28.1 µM (inactive); in the test on SF-539 it was 21.5 µM (inactive); in the test on NCI-H23 it was 34.5 µM (inactive); in the test with LOX IMVI, 19.1 µM (inactive); in the test with Hs-578T it was 70.1 µM (inactive); in the test on OVCAR-3 it was 47.9 µM (inactive). The GI50 with U-251 is 22.5 µM (inactive).
Consider `Cc1ccc2ccc3ccc(C)nc3c2n1` [NEOCUPROINE], for which the GI50 was > 100 µM (inactive) in the test on BT-549; > 100 µM (inactive) in the test with SNB-19; > 100 µM (inactive) in the test on DU-145; greater than 71.6 µM in the test with HCT-15; > 26.2 µM (inactive) in the test on SK-MEL-5; 0.59 µM (active) in the test with CCRF-CEM. Moreover, the GI50 is > 100 µM (inactive) in the test on CAKI-1; > 100 µM (inactive) in the test with Malme-3M; > 52 µM (inactive) with SNB-75; 6.38 µM (inactive) with HCC 2998; > 100 µM (inactive) with SK-MEL-2; 3.03 µM (inactive) in the test with UACC-62. Also, the GI50 with A498 is > 40.1 µM (inactive); in the test on SF-539 it was 49.2 µM (inactive); with NCI-H23 it was 0.439 µM (active); with LOX IMVI it was 4.09 µM (inactive); in the test with Hs-578T, > 100 µM (inactive); with OVCAR-3 it was 0.344 µM (active). Also, in the test on U-251, the GI50 is 7.31 µM (inactive).
